Values quoted from earlier work as cited in patent US20030224072A1, “Topical and oral administration of a composition containing Pelargonium Graveolens for diagnosis and treatment of various neuralgias and other conditions” (priority 2002, published 2003).

Test system: neuropathic pain
Details: topical

COc1cc(CNC(=O)CCCC/C=C/C(C)C)ccc1O [Capsaicin]
duration of burning sensation on skin: approximately one week | share of neuropathic pain patients with pain relief: only a small percentage
